Assay [1] concerns the target Macrophage metalloelastase (Homo sapiens, UniProt P39900). Description: Inhibition of matrix metalloprotease-12 (MMP-12).
Assay [2] deals with Matrix metalloproteinase-14 (Homo sapiens, UniProt P50281). Description: Inhibition of matrix metalloprotease-14 (MMP-14).
Assay [3] has as its target Matrix metalloproteinase-15 (Homo sapiens, UniProt P51511). Description: Inhibition of matrix metalloprotease-15 (MMP-15).
Assay [4] has as its target T1, Matrix metalloproteinase-26 (Homo sapiens, UniProt Q9NRE1).
T1 sequence (Q9NRE1 whole entry): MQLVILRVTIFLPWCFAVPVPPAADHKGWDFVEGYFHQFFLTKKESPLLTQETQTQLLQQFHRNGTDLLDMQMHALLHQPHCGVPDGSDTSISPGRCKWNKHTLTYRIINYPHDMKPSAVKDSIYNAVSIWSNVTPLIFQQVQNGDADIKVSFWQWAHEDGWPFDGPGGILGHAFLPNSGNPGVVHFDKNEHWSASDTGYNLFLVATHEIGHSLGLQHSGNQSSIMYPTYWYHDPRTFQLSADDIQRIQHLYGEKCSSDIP
Description: Inhibition of matrix metalloprotease-26 (MMP-26).

The target of assay [5] is 72 kDa type IV collagenase (Homo sapiens, UniProt P08253). Description: Inhibition of matrix metalloprotease-2 (MMP-2).
Assay [6] has as its target T2, Matrilysin (Homo sapiens, UniProt P09237).
T2 sequence (P09237 whole entry): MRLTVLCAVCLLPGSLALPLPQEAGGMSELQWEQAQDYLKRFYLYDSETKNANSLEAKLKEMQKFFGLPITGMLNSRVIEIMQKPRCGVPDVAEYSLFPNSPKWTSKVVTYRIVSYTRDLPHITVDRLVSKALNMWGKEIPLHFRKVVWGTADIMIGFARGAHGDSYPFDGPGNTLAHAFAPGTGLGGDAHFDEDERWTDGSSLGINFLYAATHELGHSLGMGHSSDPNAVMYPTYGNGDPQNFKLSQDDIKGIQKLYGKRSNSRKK

Assay [7] addresses T3, Interstitial collagenase (Homo sapiens, UniProt P03956).
T3 sequence (P03956 whole entry): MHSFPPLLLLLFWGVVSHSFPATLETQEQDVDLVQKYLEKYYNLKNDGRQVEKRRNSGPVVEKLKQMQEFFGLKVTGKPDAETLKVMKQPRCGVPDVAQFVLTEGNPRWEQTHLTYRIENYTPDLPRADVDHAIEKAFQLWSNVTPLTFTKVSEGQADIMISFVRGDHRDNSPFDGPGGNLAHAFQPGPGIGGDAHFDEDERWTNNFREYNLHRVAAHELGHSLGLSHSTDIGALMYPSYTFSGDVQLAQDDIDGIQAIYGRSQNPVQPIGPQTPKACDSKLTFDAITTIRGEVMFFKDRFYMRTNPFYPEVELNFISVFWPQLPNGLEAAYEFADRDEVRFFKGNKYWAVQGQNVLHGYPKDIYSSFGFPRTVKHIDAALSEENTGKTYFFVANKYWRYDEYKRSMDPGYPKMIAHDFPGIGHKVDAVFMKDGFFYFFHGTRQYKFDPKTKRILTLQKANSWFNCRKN
Description: Inhibition of matrix metalloprotease-1 (MMP-1).

In assay [8] the target is Matrix metalloproteinase-16 (Homo sapiens, UniProt P51512). Description: Inhibition of matrix metalloprotease-16 (MMP-16).
Assay [9] concerns the target Matrix metalloproteinase-9 (Homo sapiens, UniProt P14780). Description: Inhibition of matrix metalloprotease-9 (MMP-9).
Assay [10] addresses T2, Matrilysin. Description: Inhibition of matrix metalloprotease-7 (MMP-7).
Assay [11] addresses T1, Matrix metalloproteinase-26. Description: Inhibition of matrix metalloprotease-26 (MMP-26) (inactive up to 50 uM).
In assay [12] the target is T3, Interstitial collagenase.

The source of these data is ChEMBL document CHEMBL1146709, “Tetrahydroisoquinoline based sulfonamide hydroxamates as potent matrix metalloproteinase inhibitors” (Bioorg Med Chem Lett, 2004).

A word on the IC50: it is the concentration that inhibits the measured activity by half. A low value points to higher potency.

Sequence of Matrix metalloproteinase-9 (P14780 whole entry): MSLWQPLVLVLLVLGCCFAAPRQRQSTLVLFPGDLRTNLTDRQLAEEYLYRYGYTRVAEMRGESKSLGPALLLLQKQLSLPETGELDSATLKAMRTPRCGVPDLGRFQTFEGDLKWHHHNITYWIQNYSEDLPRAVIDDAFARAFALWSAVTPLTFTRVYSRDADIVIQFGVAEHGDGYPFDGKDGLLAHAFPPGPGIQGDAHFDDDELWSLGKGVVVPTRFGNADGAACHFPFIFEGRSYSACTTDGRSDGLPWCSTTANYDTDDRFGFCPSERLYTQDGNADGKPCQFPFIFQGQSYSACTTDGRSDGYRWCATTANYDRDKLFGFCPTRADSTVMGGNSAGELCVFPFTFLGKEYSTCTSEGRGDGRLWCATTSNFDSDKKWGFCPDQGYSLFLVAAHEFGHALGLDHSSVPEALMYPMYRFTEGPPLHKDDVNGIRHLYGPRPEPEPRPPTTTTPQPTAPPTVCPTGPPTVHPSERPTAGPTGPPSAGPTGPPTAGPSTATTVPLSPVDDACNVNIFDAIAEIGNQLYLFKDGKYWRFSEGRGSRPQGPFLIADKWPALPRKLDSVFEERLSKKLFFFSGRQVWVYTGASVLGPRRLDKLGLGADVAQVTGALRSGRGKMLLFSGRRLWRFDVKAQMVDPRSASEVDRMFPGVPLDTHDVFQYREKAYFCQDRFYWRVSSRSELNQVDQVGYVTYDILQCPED
Sequence of Macrophage metalloelastase (P39900 whole entry): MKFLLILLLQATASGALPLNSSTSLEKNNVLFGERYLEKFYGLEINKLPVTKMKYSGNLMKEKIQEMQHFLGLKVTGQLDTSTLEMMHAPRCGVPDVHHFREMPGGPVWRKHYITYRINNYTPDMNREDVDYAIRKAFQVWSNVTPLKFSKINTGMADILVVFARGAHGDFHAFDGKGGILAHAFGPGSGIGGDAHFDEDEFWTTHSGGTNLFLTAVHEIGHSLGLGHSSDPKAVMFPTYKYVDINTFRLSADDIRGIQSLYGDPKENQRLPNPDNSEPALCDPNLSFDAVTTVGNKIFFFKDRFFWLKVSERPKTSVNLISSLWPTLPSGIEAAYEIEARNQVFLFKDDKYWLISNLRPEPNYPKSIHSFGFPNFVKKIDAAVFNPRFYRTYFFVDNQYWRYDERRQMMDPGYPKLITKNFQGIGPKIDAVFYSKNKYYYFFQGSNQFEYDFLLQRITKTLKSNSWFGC
Sequence of Matrix metalloproteinase-16 (P51512 whole entry): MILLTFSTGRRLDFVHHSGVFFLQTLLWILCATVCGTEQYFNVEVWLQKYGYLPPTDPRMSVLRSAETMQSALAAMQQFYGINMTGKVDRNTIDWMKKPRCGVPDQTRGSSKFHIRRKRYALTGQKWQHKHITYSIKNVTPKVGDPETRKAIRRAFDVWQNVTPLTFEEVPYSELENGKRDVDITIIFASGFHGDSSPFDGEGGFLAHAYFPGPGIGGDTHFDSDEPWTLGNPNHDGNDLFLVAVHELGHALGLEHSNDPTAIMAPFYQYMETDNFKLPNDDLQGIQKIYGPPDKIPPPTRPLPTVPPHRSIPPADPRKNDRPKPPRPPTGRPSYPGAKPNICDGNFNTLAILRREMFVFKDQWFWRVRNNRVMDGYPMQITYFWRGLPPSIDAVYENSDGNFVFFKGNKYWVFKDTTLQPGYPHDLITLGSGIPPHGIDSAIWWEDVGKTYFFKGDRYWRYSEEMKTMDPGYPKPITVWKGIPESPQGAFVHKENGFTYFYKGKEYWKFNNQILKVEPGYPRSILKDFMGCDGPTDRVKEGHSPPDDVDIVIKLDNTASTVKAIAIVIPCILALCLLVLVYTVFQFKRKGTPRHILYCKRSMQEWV
Sequence of Matrix metalloproteinase-15 (P51511 whole entry): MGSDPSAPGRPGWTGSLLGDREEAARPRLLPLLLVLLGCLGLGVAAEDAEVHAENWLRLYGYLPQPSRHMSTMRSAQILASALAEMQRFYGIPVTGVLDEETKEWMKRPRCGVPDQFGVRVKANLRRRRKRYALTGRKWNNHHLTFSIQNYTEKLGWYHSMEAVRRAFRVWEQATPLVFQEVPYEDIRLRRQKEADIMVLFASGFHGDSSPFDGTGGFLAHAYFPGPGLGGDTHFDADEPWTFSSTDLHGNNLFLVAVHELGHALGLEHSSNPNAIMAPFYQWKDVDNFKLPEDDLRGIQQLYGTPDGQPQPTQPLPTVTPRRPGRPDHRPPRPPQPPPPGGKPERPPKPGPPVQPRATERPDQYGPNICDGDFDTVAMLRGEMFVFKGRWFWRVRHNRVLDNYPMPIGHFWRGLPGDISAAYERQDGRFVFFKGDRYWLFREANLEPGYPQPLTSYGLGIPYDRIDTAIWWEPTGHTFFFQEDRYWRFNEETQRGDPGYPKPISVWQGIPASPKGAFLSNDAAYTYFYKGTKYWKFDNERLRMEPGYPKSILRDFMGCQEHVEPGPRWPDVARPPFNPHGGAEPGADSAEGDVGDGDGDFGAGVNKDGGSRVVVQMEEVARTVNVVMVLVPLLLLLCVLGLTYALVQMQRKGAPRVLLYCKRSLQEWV
Sequence of 72 kDa type IV collagenase (P08253 whole entry): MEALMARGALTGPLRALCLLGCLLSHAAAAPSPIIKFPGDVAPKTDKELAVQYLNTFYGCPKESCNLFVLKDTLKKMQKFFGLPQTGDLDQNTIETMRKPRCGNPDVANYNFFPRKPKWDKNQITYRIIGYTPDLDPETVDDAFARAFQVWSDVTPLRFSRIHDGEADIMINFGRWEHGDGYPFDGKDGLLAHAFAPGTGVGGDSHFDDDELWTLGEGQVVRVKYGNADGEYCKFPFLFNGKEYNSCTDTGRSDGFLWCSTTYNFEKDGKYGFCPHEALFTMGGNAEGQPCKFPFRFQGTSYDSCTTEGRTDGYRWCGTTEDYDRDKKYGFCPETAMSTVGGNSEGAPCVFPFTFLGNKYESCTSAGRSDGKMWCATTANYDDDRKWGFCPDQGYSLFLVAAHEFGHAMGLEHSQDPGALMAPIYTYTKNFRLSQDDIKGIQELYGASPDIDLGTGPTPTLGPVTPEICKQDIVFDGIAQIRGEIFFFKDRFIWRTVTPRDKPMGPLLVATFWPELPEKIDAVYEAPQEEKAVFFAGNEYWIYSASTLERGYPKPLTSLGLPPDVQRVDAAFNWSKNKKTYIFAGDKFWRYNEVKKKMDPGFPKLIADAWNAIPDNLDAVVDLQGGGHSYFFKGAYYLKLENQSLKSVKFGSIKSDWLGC

As for `O=C(NO)C1c2ccc(O)cc2CCN1S(=O)(=O)c1ccccc1` (configuration not stated), the IC50 in assay [1] was 421 nM; in [2] it was 1100 nM; in [3], 218 nM; in assay [4], 858 nM; in assay [5], 430 nM; in assay [6], “Not Active”. Also, the IC50 in assay [7] is 6320 nM; in assay [8] it was 184 nM; in assay [9], 335 nM.
Regarding `Cc1ccc(S(=O)(=O)N2CCc3cc(OCc4ccccc4)ccc3C2C(=O)NO)cc1` (configuration not stated), the half-maximal inhibitory concentration (IC50) is 72 nM in assay [1]; 62 nM in assay [2]; 44 nM in [3]; 2050 nM in [4]; 33 nM in assay [5]; 12000 nM in assay [10]. In addition, the 50% inhibitory concentration (IC50) in [7] is 462 nM; in [8], 56 nM; in assay [9], 130 nM.
As to `O=C(NO)C1c2ccc(O)cc2CCN1S(=O)(=O)c1ccc([N+](=O)[O-])cc1` (configuration not stated), the IC50 turned out to be 59 nM in [1]; 521 nM in assay [2]; 126 nM in assay [3]; 791 nM in [4]; 76 nM in [5]; 21400 nM in assay [10]. Moreover, the results for the 50% inhibitory concentration (IC50) in assay [7], in assay [8] and in assay [9] were 41 nM, 177 nM and 258 nM, respectively.
For `O=C(NO)C1c2ccc(OCc3ccccc3)cc2CCN1S(=O)(=O)c1cc(Cl)ccc1Cl` (configuration not stated), the IC50 is 931 nM in [1]; “Not Active” in assay [11]; 20800 nM in [2]; 7300 nM in [3]; 1100 nM in [5]; “Not Active” in [6]. Besides, the IC50 in assay [8] was 4630 nM; in [12], “Not Active”; in assay [9], 3120 nM.
For the compound `O=C(NO)C1c2ccc(OCc3ccccc3)cc2CCN1S(=O)(=O)c1ccccc1` (configuration not stated), the IC50 in assay [1] was 57 nM; in assay [2] it was 39 nM; in assay [3], 17 nM; in [4], 1450 nM; in assay [5], 24 nM; in assay [10], 7140 nM. In addition, the values for the IC50 in assay [7], in [8] and in assay [9] were 452 nM, 35 nM and 35 nM, respectively.
`Cc1ccc(S(=O)(=O)N2CCc3cc(O)ccc3C2C(=O)NO)cc1` (configuration not stated): the IC50 in assay [1] amounted to 29 nM; in assay [2] it was 52 nM; in assay [3], 19 nM; in assay [4] it was 97 nM; in assay [5], 18 nM; in assay [10], 10500 nM. In addition, the figures for the IC50 in assay [7], in assay [8] and in assay [9] were 152 nM, 21 nM and 40 nM, respectively.
On to `COc1cc2c(cc1O)CCN(S(=O)(=O)c1ccccc1)C2C(=O)NO` (configuration not stated), for which the IC50 was found to be 65 nM in assay [1]; 867 nM in [2]; 29 nM in assay [3]; 146 nM in assay [4]; 27 nM in [5]; 10700 nM in assay [10]. Besides, the concentration for half-maximal inhibition (IC50) in assay [7] is 595 nM; in assay [8] it was 40 nM; in assay [9] it was 100 nM.
In the case of `COc1ccc(S(=O)(=O)N2CCc3cc(O)c(OC)cc3C2C(=O)NO)cc1` (configuration not stated), the IC50 in assay [1] was 20 nM; in [2], 68 nM; in [3], 6 nM; in [4], 86 nM; in assay [5] it was 26 nM; in assay [10] it was 3190 nM. Also, the half-maximal inhibitory concentration (IC50) in assay [7] amounted to 123 nM; in [8], 16 nM; in assay [9], 46 nM.
Take `Nc1ccc(S(=O)(=O)N2CCc3cc(O)ccc3C2C(=O)NO)cc1` (configuration not stated): the IC50 was 191 nM in assay [1]; 835 nM in [2]; 385 nM in assay [3]; 492 nM in assay [4]; 150 nM in [5]; “Not Active” in assay [6]. For the same compound, the results for the IC50 in [7], in assay [8] and in assay [9] were 13200 nM, 202 nM and 248 nM, respectively.
For the compound `COc1ccc(S(=O)(=O)N2CCc3cc(O)ccc3C2C(=O)NO)cc1` (configuration not stated), the IC50 in [1] is 7690 nM; in assay [2] it was 3110 nM; in assay [3] it was 621 nM; in assay [4], 7510 nM; in [5], 724 nM; in [6] it was “Not Active”. Moreover, the IC50 in assay [7] worked out at 15000 nM; in assay [8], 1680 nM; in [9] it was 4100 nM.
In the case of `COc1ccc(S(=O)(=O)N2CCc3cc(OCc4ccccc4)ccc3C2C(=O)NO)cc1` (configuration not stated), the half-maximal inhibitory concentration (IC50) is 57 nM in assay [1]; 34 nM in assay [2]; 4 nM in assay [3]; 744 nM in [4]; 16 nM in assay [5]; 2420 nM in assay [10]. The concentration for half-maximal inhibition (IC50) is 88 nM in assay [7], 22 nM in assay [8] and 30 nM in [9].
Take `O=C(NO)C1c2ccc(O)cc2CCN1S(=O)(=O)c1cc(Cl)ccc1Cl` (configuration not stated): the IC50 came out at 170 nM in [1]; 4610 nM in assay [2]; 1790 nM in [3]; 7900 nM in assay [4]; 853 nM in [5]; 21400 nM in assay [10]. For the same compound, the IC50 is 1840 nM in assay [8], “Not Active” in assay [12] and 1880 nM in [9].
`CNC(=O)[C@H](Cc1c[nH]c2ccccc12)NC(=O)[C@@H](CC(=O)NO)CC(C)C` [ILOMASTAT]: the half-inhibitory concentration (IC50) amounted to 13 nM in assay [1], 23 nM in assay [2], 17 nM in assay [4] and 8 nM in assay [8].
